US8975265B2, “Substituted imidazo[1,2-a]pyrimidines and —pyridines” (Bayer Intellectual Property GmbH, priority 2010, dated 2015)
Where two headings read alike, the source gives them in different places.

Key:
[1] = test system: p-4E-BP1-T70 in KPL4 breast tumour cell line; test: Cellular p-4E-BP1-T70 assay; format: cell-based; settings: 2 hours treatment, read-out: P4EBP1-T70 median IC50
Protocol: The molecular mechanism of action was investigated in a set of experiments to assess the inhibition of the PI3K-AKT-mTOR pathway in responsive cell lines such as KPL4 breast tumour cell line (PIK3CAH1047R, HER20/E and hormone independent). The phospho-substrates of PI3K-AKT-mTOR axis were used as the read-outs to reflect pathway inhibition. Cells were seeded at 60-80% confluency per well in 96-well cell culture plates. After overnight incubation at 37° C. 5% CO2, cells were treated with compounds and vehicle at 37° C. for 2 hours. Thereafter, cells were lysed in 150 μl lysis buffer and the levels of phospho-AKT at T308 and S473 and p-4E-BP1 at T70 sites were determined with the corresponding AlphaScreen® SureFire® assay kits (Perkin Elmer: 4E-BP1 Assay Kit Cat # TRG4E2S10K; Akt 1/2/3 p-Ser 473 #TGRA4S500 and Akt 1/2/3 p-Thr 308 #TGRA3S500 as well as IgG detection Kit #6760617M) as described in the manuals. All measurements where at least done in duplicates and confirmed by independent repetition.

[2] = test system: p-AKT S473 in PC3 human prostate tumours; test: In vivo xenograft mechanism of action study; parameters: species or system athymic nude mice; settings: Mus musculus, po, PC3 tumours in nude mice, once 50 mg/kg p.o.
Description: In Vivo Xenograft Mechanism of Action Study
To this extent PC3 human prostate tumours were xenografted onto athymic nude mice. PC3 tumour cells were cultivated according to ATCC protocols in recommended media contained 10% FCS and harvested for transplantation in a subconfluent (70%) state. 3×10^6 tumour cells suspended in 50% Matrigel were subcutaneously implantated into the inguinal region of male mice. Tumours were allowed to grow to the predetermined size of 60-80 mm^2. When the tumours were approximately in size, the animals were randomized to treatment and control groups (groups size: 9 animals) and treatment was started. Animals were treated once with 50 mg/kg compound or vehicle per oral administration (p.o.) carried out via a gastric tube. Treatment of each animal was based on individual body weight. At 2, 5 and 24 hours post treatment 3 animals each were sacrificed and the PC3 tumours excised. Tumour samples of approximately 5×5×5 mm were lysed on ice in MSD lysis buffer in the presence of protease and phosphatase inhibitors using Tissue Lyzer (Qiagen, Germany). The levels of p-AKT S473 in extracts from tumour tissue were analysed in an ELISA based assay. This assay is based on the “Akt Duplex” of the MULTI-SPOT® Assay System (Fa. Meso Scale Discovery, Cat# N41100B-1) following manufacturers instructions. Each assay used 20 μg of protein extract and measured total AKT and p-AKT content simultaneously in one well. All measurements where at least done in duplicates and confirmed by independent repetition.
Values for P-AKT are expressed as percentage of P-AKT level compared to total-AKT content of the extracts. Vehicle treated tumours were analyzed to determine the basal level of P-AKT in this model and used as a normalization control to determine the % P-AKT relative to vehicle levels.

[3] = test system: p-AKT1/2/3-S473 in KPL4 breast tumour cell line; test: Cellular p-AKT1/2/3-S473 assay; format: cell-based; settings: KPL4 breast tumour cell line, 2 hours treatment; read-out: pAKT-S743 median IC50
Method in brief: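 KPL4 cells (PIK3CA H1047R, HER2 0/E, hormone independent) were seeded at 60–80% confluency, cultured overnight, then exposed to compound for 2 h at 37 °C. pAKT-S473 and total AKT measured together by MSD Akt Duplex on 20 µg extract; pAKT expressed as % of total AKT, at least duplicate with independent repeats.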

[4] = test system: MCF7; test: Tumor cell proliferation assay (CellTiter-Glo, 72 h), MCF7; format: cell-based; settings: Homo sapiens, 72h drug exposure
Method in brief: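 Cells seeded at 3000–5000/well and incubated overnight, then exposed to compound for 72 h at 37 °C. Viability measured by CellTiter-Glo ATP luminescence, with a separate plate read at t=0.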

[5] = biological target: His-tagged human recombinant kinase full-length Akt1 (Homo sapiens (Human), UniProt P31749); test: Akt1 kinase assay (TR-FRET); format: biochemical; settings: 10 μM ATP; read-out: Akt1, median IC50
Method in brief: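 Full-length His-tagged Akt1 (about 0.05 ng/μl final) preincubated 15 min at 22 °C with compound in 50 mM TRIS/HCl pH 7.5, 5 mM MgCl2, 1 mM DTT, 0.02% Triton X-100; biotinylated peptide substrate. Phosphopeptide detected by TR-FRET (Eu-chelate antibody to streptavidin-XL665) after 1 h at 22 °C.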

[6] = test system: LnCAP; test: Tumor cell proliferation assay (CellTiter-Glo, 72 h), LnCAP; format: cell-based; settings: Homo sapiens, 72h drug exposure
Protocol: Compounds were tested in a cell-based assay that measures the capacity of the compounds to inhibit tumour cell proliferation following a 72h drug exposure. Cell viability is determined using CellTiter-Glow® (CTG, Promega, cat# G7571/2/3). The CellTiter-Glo® Luminescent Cell Viability Assay is a homogeneous method to determine the number of viable cells in culture. Detection is based on using the luciferase reaction to measure the amount of ATP from viable cells. The amount of ATP in cells correlates with cell viability. Within minutes after a loss of membrane integrity, cells lose the ability to synthesize ATP, and endogenous ATPases destroy any remaining ATP; thus the levels of ATP fall precipitously.
Cells were plated at 3000-5000 cells/well (depending on the cell lines) in 90 μL growth medium on MTPs (Corning; #3603, black plate, clear flat bottom). For each cell line assayed, cells were plated onto a separate plate for determination of […] at t=0 hour and t=72 hour time points. Following overnight incubation at 37° C., chemiluminescence values for the t=0 samples were determined after adding 10 μl medium and 100 μl CTG solution according to manufacture protocol. Plates for the t=72 hour time points were treated with compounds diluted into growth medium at ten times final concentration added in 10 μL to the cell culture plate. Cells were then incubated for 72 hours at 37° C. Chemiluminescence values for the t=72 hour samples were determined. […] Experiments were controlled using a reference compound as standard.

[7] = test system: KPL-4 breast cancer cell line; test: Tumor cell proliferation assay (CellTiter-Glo, 72 h), KPL-4; format: cell-based; settings: KPL4, 72h drug exposure
Method in brief: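 KPL-4 cells were treated with compound for 72 h at 37°C. Viability was measured as ATP by CellTiter-Glo luminescence, with a separate t=0 plate read after overnight attachment. A reference compound was run as standard.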

[8] = 2 hours post treatment, read-out: P-AKT % relative to control at 2 hours
[9] = 5 hours post treatment, read-out: P-AKT % relative to control at 5 hours

Sequence of His-tagged human recombinant kinase full-length Akt1 (P31749 whole entry): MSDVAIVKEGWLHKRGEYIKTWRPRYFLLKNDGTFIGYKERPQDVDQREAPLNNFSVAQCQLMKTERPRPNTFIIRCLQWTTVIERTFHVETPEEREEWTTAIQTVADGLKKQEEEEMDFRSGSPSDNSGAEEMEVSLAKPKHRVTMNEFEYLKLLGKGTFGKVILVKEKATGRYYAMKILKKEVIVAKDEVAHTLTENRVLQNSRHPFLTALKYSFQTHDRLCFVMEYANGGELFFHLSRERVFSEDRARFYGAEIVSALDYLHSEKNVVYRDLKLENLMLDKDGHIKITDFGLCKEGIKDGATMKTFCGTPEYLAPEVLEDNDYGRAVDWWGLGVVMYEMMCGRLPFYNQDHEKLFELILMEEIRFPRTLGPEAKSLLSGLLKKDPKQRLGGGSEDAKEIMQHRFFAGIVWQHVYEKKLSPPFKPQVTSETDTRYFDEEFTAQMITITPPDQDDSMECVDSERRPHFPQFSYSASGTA

IC50 [1] | IC50 [3] | IC50 [4] | IC50 [5] | IC50 [6] | IC50 [7] | Structure (SMILES) | response vs control in vivo at 50 mg/kg [2, 8] | response vs control in vivo at 50 mg/kg [2, 9]
1.02 µM | 0.035 µM | 0.4 µM | 0.024 µM | 1.1 µM | 0.9 µM | COc1cc(C(N)=O)cn2c(-c3ccccc3)c(-c3ccc(C4(N)CCC4)cc3)nc12 [Example 1-13] | 95.7% | 152%
– | 0.537 µM | 2 µM | 1.66 µM | 1.9 µM | 2 µM | CCc1ccn2c(-c3ccccc3)c(-c3ccc(C4(N)CCC4)cc3)nc2c1 [Example 2-21] | – | –
1.84 µM | 1.61 µM | 10 µM | 0.893 µM | – | 10 µM | Cc1cc(C(N)=O)c2nc(-c3ccc(C4(N)CCC4)cc3)c(-c3ccccc3)n2c1 [Example 2-96] | 12.2% | 11.4%
– | 0.041 µM | 0.7 µM | 0.129 µM | 0.5 µM | 1.7 µM | NC1(c2ccc(-c3nc4cc(-c5cccnc5)ccn4c3-c3ccccc3)cc2)CCC1 [Example 2-110] | 10.2% | 16.4%
– | 0.192 µM | – | – | 1.7 µM | 1.8 µM | NC1(c2ccc(-c3nc4cc(-c5cnc[nH]5)ccn4c3-c3ccccc3)cc2)CCC1 [Example 2-115] | – | –
– | 3.07 µM | – | 3.44 µM | 9.9 µM | 3.1 µM | COC(=O)CCc1ccn2c(-c3ccccc3)c(-c3ccc(C4(N)CCC4)cc3)nc2c1 [Example 2-125] | – | –
– | 0.125 µM | – | 0.601 µM | 1 µM | 1.6 µM | CCNC(=O)c1ccn2c(-c3ccccc3)c(-c3ccc(C4(N)CCC4)cc3)nc2c1 [Example 2-126] | – | –
4.87 µM | 1.68 µM | – | 0.132 µM | 1.2 µM | 5.4 µM | NC1(c2ccc(-c3nc4cc(C(=O)NO)ccn4c3-c3ccccc3)cc2)CCC1 [Example 2-127] | – | –
– | 0.244 µM | – | – | 1.7 µM | 2 µM | Cn1cncc1-c1ccc2nc(-c3ccc(C4(N)CCC4)cc3)c(-c3ccccc3)n2c1 [Example 2-133] | – | –
– | 0.132 µM | – | 0.691 µM | 1.8 µM | – | Cn1cc(-c2ccc3nc(-c4ccc(C5(N)CCC5)cc4)c(-c4ccccc4)n3c2)cn1 [Example 2-134] | – | –
1.21 µM | 0.901 µM | – | 0.093 µM | 1.8 µM | 9.5 µM | CCOC(=O)c1ccc2nc(-c3ccc(C4(N)CCC4)cc3)c(-c3ccccc3)n2c1 [Example 2-143] | – | –
1.31 µM | 0.091 µM | 1.3 µM | 0.055 µM | – | 1.7 µM | CC(=O)c1ccc2nc(-c3ccc(C4(N)CCC4)cc3)c(-c3ccccc3)n2c1 [Example 2-144] | 6.3% | 8%
1.21 µM | 0.105 µM | 0.3 µM | 0.024 µM | – | 1 µM | COc1cc(Cl)cn2c(-c3ccccc3)c(-c3ccc(C4(N)CCC4)cc3)nc12 [Example 2-145] | 33% | 38%
0.62 µM | 0.016 µM | 0.4 µM | 0.058 µM | – | 0.8 µM | NC(=O)c1cccn2c(-c3ccccc3)c(-c3ccc(C4(N)CCC4)cc3)nc12 [Example 6-0, 2-[4-(1-amino-cyclobutyl)-phenyl]-3-phenyl-imidazo[1,2-a]pyridine-8-carboxylic acid amide] | 5.8% | 6%
– | 0.005 µM | 0.3 µM | 0.012 µM | 0.4 µM | 0.3 µM | NC(=O)c1cc(Cl)c2nc(-c3ccc(C4(N)CCC4)cc3)c(-c3ccccc3)n2c1 [Example 6-1, 2-[4-(1-amino-cyclobutyl)-phenyl]-8-chloro-3-phenyl-imidazo[1,2-a]pyridine-6-carboxylic acid amide] | 7.7% | 7.5%
– | 0.588 µM | – | 1.51 µM | 2 µM | 2.2 µM | NC1(c2ccc(-c3nc4ccc(-c5cccnc5O)cn4c3-c3ccccc3)cc2)CCC1 [Example 11-0, 3-{2-[4-(1-amino-cyclobutyl)-phenyl]-3-phenyl-imidazo[1,2-a]pyridin-6-yl}-pyridin-2-ol] | – | –
– | 0.339 µM | – | 0.688 µM | 1.7 µM | 1.9 µM | Cc1cc(-c2ccc3nc(-c4ccc(C5(N)CCC5)cc4)c(-c4ccccc4)n3c2)[nH]n1 [Example 12-0, 1-{4-[6(5-methyl-2H-pyrazol-3-yl)-3-phenyl-imidazo[1,2-a]pyridin-2-yl]-phenyl}-cyclobutylamine] | – | –
